Data taken from patent US10968214B2, “KRas G12C inhibitors” (Eli Lilly and Company, priority 2018, dated 2021).
Where two headings read alike, the source gives them in different places.

Experiments:
SW1573 = assay: Combination 4 day growth assay (Cell TiterGlo), SW1573; assay type: cell-based; conditions: Homo sapiens, 96 h, single treatment, read-out: Absolute IC50
Method: (§1) Cell lines for this study are obtained from ATCC and grown under ATCC recommended conditions, except for LXFA-983L, which is obtained from Oncotest/Charles Rivers Laboratories, Wilmington, Mass. and D122-96, which is obtained from L. Eisenbach (Weizman Institute of Science, Rehovot, Israel)—both grown under recommended conditions. […] The proliferation assay is performed as a 4 day growth assay using Cell TiterGlo® as the readout. Briefly, cells are plated in 96-well cell culture plates and allowed to adhere overnight at 37° C. The following day, cells are treated with compounds, either single treatments or combination treatments. First, the testing compounds are serially diluted in DMSO, followed by dilution into media as a 5× concentration with 1% DMSO, and finally added to cells in media to dilute to 1×. The cells are incubated at 37° C. for 4 more days. At the end of the incubation period, Cell TiterGlo® reagent is mixed and added to the wells. After 10 minutes, the luminescence is read by a Perkin Elmer Envision instrument. Absolute IC50 values generated by a 4-parameter logistics model for the single and combination treatments are generated, followed by combination indexes for each combination treatment and cell line. The combination IC50 values are adjusted based on the total concentration of each compound when added together. […] The combination index (CI) measures the degree to which the potency of a combination therapy differs from the expected-if-additive potency and is based on the Loewe definition of additivity.
(§2) [formula] Where • CAy and CBy are the concentrations of therapies A and B that produce an effect, y, when given in combination • ICAy and ICBy are the concentrations of A and B that produce an effect, y, when given individually The biological interpretation of the combination index is as follows: synergistic if the combination index <0.5, additive if the combination index is between 0.5 and 2, and antagonistic if the combination index is >2.

A427 = assay: CellTiterGlo Cell Proliferation Assay, A427; assay type: cell-based; conditions: Homo sapiens, A-427, KRas G12D, lung, 96 hr
Method: (§3) A panel of tumor cell lines harboring KRas G12C or other KRas mutations are collected (Table 6). All cell lines are from ATCC or other sources indicated.
(§4) Typically cells are cultured in RPMI1640 or Dulbecco's modified Eagle's medium (DMEM, GIBCO) supplemented with 10% FBS (GIBCO, Invitrogen). For 2D culture cells (4×10^3/well) maintained in growth medium described above, are plated onto 96 well tissue culture plates Corning® Cat. 3603) a day before the treatment. For 3D culture 8000 cells/well are seeded onto 96 well ultra-low attachment tissue culture plates (Corning, #3474). The cells are treated compound for 96 hr, and then are analyzed for viability using the CellTiterGlo® Luminescent Cell Viability Assay® (Promega #G7572 for 2D and Promega #G9683 for 3D cultures) according to manufacturer's instructions and an EnVision™ plate reader. Nonlinear regression and sigmoidal dose-response curves are used to calculate the half maximal inhibitory concentration (IC50) with GraphPad Prism 4® software.

UM-UC-3 = assay: Combination 4 day growth assay (Cell TiterGlo), UM-UC-3; assay type: cell-based; conditions: Homo sapiens, UMUC3, 96 h, single treatment, read-out: Absolute IC50
Method: as §1, §2

H1975 = assay: CellTiterGlo Cell Proliferation Assay, H1975; assay type: cell-based; conditions: Homo sapiens, NCI-H1975, KRas wild type, lung, 96 hr
Method: as §3, §4

H358 xenograft = assay: Anti-tumor growth activity, lung cancer H358 xenograft mouse model; assay type: in vivo; conditions: for Tumor Growth Inhibition (%) or Regression (−%): 28 Day, negative = regression
Method: To evaluate in vivo target inhibition and anti-tumor efficacy of a compound, Human lung cancer cells, H358 or H2122 are implanted into nude mice xenograft tumor models. Either H358 or H2122 cells (10×10^6 in a 1:1 Matrigel® mix, 0.2 mL total volume) are implanted by subcutaneous injection in hind leg of nude female mice (Harlan Laboratories). A total of 5 mice each group are used for efficacy study, and a total of 3-4 mice each group are used for target engagement and PD study. Treatment is initiated with oral administration (gavage) of a test compound or vehicle (20% Captisol®, 25 mM phosphate, pH 2.0 in 0.2 mL volume when the tumor size reaches approximately […]. Tumor growth and body weight are monitored over time to evaluate efficacy and signs of toxicity. Bidimensional measurements of tumors are performed twice a week and tumor volumes are calculated based on mid-axis length and mid-axis width. Tumor volume data are transformed to a log scale to equalize variance across time and treatment groups. The log volume data are analyzed with a two-way repeated measures analysis of variance by time and treatment using the mixed procedures in SAS software (version 8.2). The correlation model for the repeated measures is spatial power. Treated groups are compared to the control group at each time point. The mixed procedure is also used separately for each treatment group to calculate adjusted means and standard errors at each time point. Both analyses account for the autocorrelation within each animal. The adjusted means and standard errors are plotted for each treatment group versus time.
H358 lung tumor cells (10×10^6) are implanted by subcutaneous injection in hind leg of nude female mice (Taconic Biosciences).

HCC-44 = assay: CellTiterGlo Cell Proliferation Assay, HCC-44; assay type: cell-based; conditions: Homo sapiens, HCC44, KRas G12C, Lung, 96 hr, read-out: IC50 (μM) in 2 D cell proliferation
Method: as §3, §4

SW837 = assay: Combination 4 day growth assay (Cell TiterGlo), SW837; assay type: cell-based; conditions: Homo sapiens, SW837, 96 h, single treatment, read-out: Absolute IC50
Method: as §1, §2

H358 = assay: Combination 4 day growth assay (Cell TiterGlo), H358; assay type: cell-based; conditions: Homo sapiens, NCI-H358, 96 h, single treatment, read-out: Absolute IC50
Method: as §1, §2

EL2661 (PDX) = assay: Anti-tumor growth activity, EL2661 lung PDX; assay type: in vivo; conditions: 28 Day, negative = regression
H441 = assay: CellTiterGlo Cell Proliferation Assay, H441; assay type: cell-based; conditions: Homo sapiens, NCI-H441, KRas G12V, lung, 96 hr
Method: as §3, §4

Calu-1 = assay: CellTiterGlo Cell Proliferation Assay, Calu-1; assay type: cell-based; conditions: Homo sapiens, KRas G12C, Lung, 96 hr
Method: as §3, §4

D122-96 = assay: CellTiterGlo Cell Proliferation Assay, D122-96; assay type: cell-based; conditions: KRas G12C, Lung (mouse), 96 hr
Method: as §3, §4

[1] = read-out: IC50 (μM) in 2 D cell proliferation
[2] = read-out: IC50 (μM) in 3 D spheroid cell proliferation

IC50 (SW1573): > 10000 nM | IC50 (H1975; [1]): 18.7 µM | IC50 (H1975; [2]): 6.2 µM | IC50 (HCC-44): 0.221 µM | IC50 (SW837): 101 nM | IC50 (H358): 41.9 nM | IC50 (H441; [1]): 16.5 µM | IC50 (H441; [2]): 7.89 µM | IC50 (Calu-1; [1]): 0.024 µM | IC50 (Calu-1; [2]): 0.001 µM
Structure (SMILES): C=CC(=O)N1CCN(c2ncnc3c(F)c(-c4ccc(F)c5sc(N)nc45)c(Cl)cc23)CC1 [Example 1, 1-{4-[7-(2-Amino-7-fluoro-1,3-benzothiazol-4-yl)-6-chloro-8-fluoroquinazolin-4-yl]piperazin-1-yl}prop-2-en-1-one]
IC50 (A427; [1]): 10.1 µM | IC50 (A427; [2]): 18.6 µM | IC50 (UM-UC-3): 1830 nM | Tumor Growth Inhibition (%) or Regression (−%) (H358 xenograft; H358 Lung, 10 mg/kg BID, oral): −1.98% | Tumor Growth Inhibition (%) or Regression (−%) (H358 xenograft; H358 Lung, 10 mg/kg QD, oral): 42.7% | Tumor Growth Inhibition (%) or Regression (−%) (H358 xenograft; H358 Lung, 30 mg/kg BID, oral): −74.35% | Tumor Growth Inhibition (%) or Regression (−%) (H358 xenograft; H358 Lung, 30 mg/kg QD, oral): −33.98% | In Vivo Anti-Tumor Activities (H358 xenograft; H358 Lung, Example 1 30 mg/kg QDx28): −33.4 | animal body weight loss (H358 xenograft; H358 xenograft mice, 10 or 30 mg/kg once or twice daily for 28 days, oral): No significant animal body weight loss was observed | Tumor Growth Inhibition (%) or Regression (−%) (EL2661 (PDX); 10 mg/kg QD): 46.5% | Tumor Growth Inhibition (%) or Regression (−%) (EL2661 (PDX); 20 mg/kg QD): 58.6% | Tumor Growth Inhibition (%) or Regression (−%) (EL2661 (PDX); 30 mg/kg QD): 97.6% | Tumor Growth Inhibition (%) or Regression (−%) (EL2661 (PDX); 50 mg/kg QD): −8.6% | IC50 (D122-96; [1]): 0.126 µM | IC50 (D122-96; [2]): 0.069 µM
